target: human GLP1R (Homo sapiens (Human), UniProt P43220); test: In vitro cAMP signal activation in human GLP1R stably-expressing cell line (hGLP1R-HEK293); type: cell-based; conditions: cAMP concentration in hGLP1R-HEK293; 100% = 1 nM human GLP-1 (7-37)
Experimental: <Test Example 1> Measurement of In Vitro cAMP Signal Activation of a Compound in Human GLP1R
A human GLP1R stably-expressing cell line (hGLP1R-HEK293) was used in the experiment. The cells were cultured in a Dulbecco's modified Eagle's medium (DMEM) containing 10% fetal bovine serum (Sigma-Aldrich), 100 units/mL penicillin G and 100 μg/mL streptomycin sulfate (Gibco), and 500 μg/mL Geneticin (Gibco), under a moist atmosphere containing 5% CO2, at 37° C.
hGLP1R-HEK293 was seeded in 96 well plates at 2.0×10^4 cells per well and cultured over night. The medium for culturing the cells was changed to 50 μL of Medium A (DMEM, 20 mM HEPES, 0.05% BSA, 0.5 mM 3-isobutyl-1-methylxanthine) the next day, and the cells were incubated at 37° C. for 30 min. Then, 50 μL of Medium B (DMEM, 20 mM HEPES, 0.05% BSA, 0.5 mM 3-isobutyl-1-methylxanthine) containing GLP-1 or the compound was added, and the cells were incubated at 37° C. for an additional 30 min. Then, 100 μL of Assay lysis buffer (Applied Bioscience) was added, and the cells were incubated at 37° C. for 30 min. The cAMP concentration was quantified using cAMP HiRange kit (Cisbio Bioassays).
By setting the cAMP concentration when the human GLP-1 (7-37) was put into action at a concentration of 1 nM to 100%, the cAMP concentration of each well was converted to a reaction rate (%).

Chain of human GLP1R (P43220 24-463): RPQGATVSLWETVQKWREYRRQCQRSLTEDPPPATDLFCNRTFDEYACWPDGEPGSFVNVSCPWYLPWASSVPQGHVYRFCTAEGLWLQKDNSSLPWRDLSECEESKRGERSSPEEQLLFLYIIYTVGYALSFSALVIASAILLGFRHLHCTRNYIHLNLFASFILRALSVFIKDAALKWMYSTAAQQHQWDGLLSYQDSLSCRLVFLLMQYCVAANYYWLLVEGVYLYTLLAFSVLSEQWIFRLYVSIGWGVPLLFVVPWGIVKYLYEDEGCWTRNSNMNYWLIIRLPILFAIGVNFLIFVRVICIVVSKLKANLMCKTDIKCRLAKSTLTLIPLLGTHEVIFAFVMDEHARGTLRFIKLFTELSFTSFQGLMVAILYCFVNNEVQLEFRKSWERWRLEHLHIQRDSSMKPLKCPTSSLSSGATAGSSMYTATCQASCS

SMILES	EC50 [nM]
CCS(=O)(=O)c1ccc(-n2ccn(-c3c4c(nn3-c3cc(C)c(F)c(C)c3)CCN(C(=O)c3cc5cc(C6CCOCC6)ccc5n3[C@@]3(c5noc(=O)[nH]5)CC3C)[C@H]4C)c2=O)cc1 (stereo in doubt) [Example 21, 3-[(1S,2S)-1-[2-[(4S)-3-[3-(4-ethylsulfonylphenyl)-2-oxoimidazol-1-yl]-2-(4-fluoro-3,5-dimethylphenyl)-4-methyl-6,7-dihydro-4H-pyrazolo[4,3-c]pyridine-5-carbonyl]-5-(oxan-4-yl)indol-1-yl]-2-methylcyclopropyl]-4H-1,2,4-oxadiazol-5-one]	1.6
COCCn1c(=O)n(C)c2cc(-n3ccn(-c4c5c(nn4-c4cc(C)c(F)c(C)c4)CCN(C(=O)c4cc6cc(C7CCOC(C)(C)C7)ccc6n4[C@@]4(c6noc(=O)[nH]6)C[C@@H]4C)[C@H]5C)c3=O)ccc21 (stereo in doubt) [Example 33, 3-[(1S,2S)-1-[5-[(4S)-2,2-dimethyloxan-4-yl]-2-[(4S)-2-(4-fluoro-3,5-dimethylphenyl)-3-[3-[1-(2-methoxyethyl)-3-methyl-2-oxobenzoimidazol-5-yl]-2-oxoimidazol-1-yl]-4-methyl-6,7-dihydro-4H-pyrazolo[4,3-c]pyridine-5-carbonyl]indol-1-yl]-2-methylcyclopropyl]-4H-1,2,4-oxadiazol-5-one]	1.6
Cc1cc(-n2nc3c(c2-n2ccn(-c4ccc5[nH]ncc5c4)c2=O)[C@H](C)N(C(=O)c2cc4cc(C5CCOC(C)(C)C5)ccc4n2[C@@]2(c4noc(=O)[nH]4)C[C@@H]2C)CC3)cc(C)c1F (stereo in doubt) [Example 34, 3-[(1S,2S)-1-[5-[(4S)-2,2-dimethyloxan-4-yl]-2-[(4S)-2-(4-fluoro-3,5-dimethylphenyl)-3-[3-(1H-indazol-5-yl)-2-oxoimidazol-1-yl]-4-methyl-6,7-dihydro-4H-pyrazolo[4,3-c]pyridine-5-carbonyl]indol-1-yl]-2-methylcyclopropyl]-4H-1,2,4-oxadiazol-5-one]	3
CCc1nccc(-c2ccc3c(c2)cc(C(=O)N2CCc4nn(-c5cc(C)c(F)c(C)c5)c(-n5ccn(-c6ccc7c(cnn7C)c6)c5=O)c4C2)n3[C@@]2(c3noc(=O)[nH]3)C[C@@H]2C)c1C [Example 2, 3-[(1S,2S)-1-[5-(2-ethyl-3-methylpyridin-4-yl)-2-[2-(4-fluoro-3,5-dimethylphenyl)-3-[3-(1-methylindazol-5-yl)-2-oxoimidazol-1-yl]-6,7-dihydro-4H-pyrazolo[4,3-c]pyridine-5-carbonyl]indol-1-yl]-2-methylcyclopropyl]-4H-1,2,4-oxadiazol-5-one]	5.6
CCc1nccc(-c2ccc3c(c2)cc(C(=O)N2CCc4nn(-c5cc(C)c(F)c(C)c5)c(-n5ccn(-c6ccc7c(C)nsc7c6)c5=O)c4C2)n3[C@@]2(c3noc(=O)[nH]3)C[C@@H]2C)c1C [Example 3]	6.1
CCc1nccc(-c2ccc3c(c2)cc(C(=O)N2CCc4nn(-c5cc(C)c(F)c(C)c5)c(-n5ccn(-c6ccc(OC)c(F)c6)c5=O)c4C2)n3[C@@]2(c3noc(=O)[nH]3)C[C@@H]2C)c1C [Example 4]	12
CCc1nccc(-c2ccc3c(c2)cc(C(=O)N2CCc4nn(-c5cc(C)c(F)c(C)c5)c(-n5ccn(-c6ccc7c(C)nn(C)c7c6)c5=O)c4C2)n3[C@@]2(c3noc(=O)[nH]3)C[C@@H]2C)c1C [Example 5, 3-[(1S,2S)-1-[2-[3-[3-(1,3-dimethylindazol-6-yl)-2-oxoimidazol-1-yl]-2-(4-fluoro-3,5-dimethylphenyl)-6,7-dihydro-4H-pyrazolo[4,3-c]pyridine-5-carbonyl]-5-(2-ethyl-3-methylpyridin-4-yl)indol-1-yl]-2-methylcyclopropyl]-4H-1,2,4-oxadiazol-5-one]	6.1
COc1nccc(-c2ccc3c(c2)cc(C(=O)N2CCc4nn(-c5cc(C)c(F)c(C)c5)c(-n5ccn(-c6ccc7c(cnn7CC(C)(C)O)c6)c5=O)c4C2)n3[C@@]2(c3noc(=O)[nH]3)C[C@@H]2C)c1C [Example 6, 3-[(1S,2S)-1-[2-[2-(4-fluoro-3,5-dimethylphenyl)-3-[3-[1-(2-hydroxy-2-methylpropyl)indazol-5-yl]-2-oxoimidazol-1-yl]-6,7-dihydro-4H-pyrazolo[4,3-c]pyridine-5-carbonyl]-5-(2-methoxy-3-methylpyridin-4-yl)indol-1-yl]-2-methylcyclopropyl]-4H-1,2,4-oxadiazol-5-one]	2.9
COCCn1ncc2cc(-n3ccn(-c4c5c(nn4-c4cc(C)c(F)c(C)c4)CCN(C(=O)c4cc6cc(N7CCOC(C)(C)C7)ccc6n4[C@@]4(c6noc(=O)[nH]6)C[C@@H]4C)C5)c3=O)ccc21 [Example 7, 3-[(1S,2S)-1-[5-(2,2-dimethylmorpholin-4-yl)-2-[2-(4-fluoro-3,5-dimethylphenyl)-3-[3-[1-(2-methoxyethyl)indazol-5-yl]-2-oxoimidazol-1-yl]-6,7-dihydro-4H-pyrazolo[4,3-c]pyridine-5-carbonyl]indol-1-yl]-2-methylcyclopropyl]-4H-1,2,4-oxadiazol-5-one]	3.2
Cc1cc(-n2nc3c(c2-n2ccn(-c4ccc5c(cnn5[C@@H]5CCOC5)c4)c2=O)CN(C(=O)c2cc4cc(C5CCOCC5)ccc4n2[C@@]2(c4noc(=O)[nH]4)C[C@@H]2C)CC3)cc(C)c1F [Example 8, 3-[(1S,2S)-1-[2-[2-(4-fluoro-3,5-dimethylphenyl)-3-[2-oxo-3-[1-[(3R)-oxolan-3-yl]indazol-5-yl]imidazol-1-yl]-6,7-dihydro-4H-pyrazolo[4,3-c]pyridine-5-carbonyl]-5-(oxan-4-yl)indol-1-yl]-2-methylcyclopropyl]-4H-1,2,4-oxadiazol-5-one]	2.5
COCCCN(C(C)=O)c1ccc(-n2ccn(-c3c4c(nn3-c3cc(C)c(F)c(C)c3)CCN(C(=O)c3cc5cc(C6CCOCC6)ccc5n3[C@@]3(c5noc(=O)[nH]5)C[C@@H]3C)C4)c2=O)cc1OC [Example 9, N-[4-[3-[2-(4-fluoro-3,5-dimethylphenyl)-5-[1-[(1S,2S)-2-methyl-1-(5-oxo-4H-1,2,4-oxadiazol-3-yl)cyclopropyl]-5-(oxan-4-yl)indole-2-carbonyl]-6,7-dihydro-4H-pyrazolo[4,3-c]pyridin-3-yl]-2-oxoimidazol-1-yl]-2-methoxyphenyl]-N-(3-methoxypropyl)acetamide]	1.8
Cc1cc(-n2nc3c(c2-n2ccn(-c4ccc5c(cnn5CC(F)(F)F)c4)c2=O)CN(C(=O)c2cc4cc(C5CCOCC5)ccc4n2[C@@]2(c4noc(=O)[nH]4)C[C@@H]2C)CC3)cc(C)c1F [Example 10, 3-[(1S,2S)-1-[2-[2-(4-fluoro-3,5-dimethylphenyl)-3-[2-oxo-3-[1-(2,2,2-trifluoroethyl)indazol-5-yl]imidazol-1-yl]-6,7-dihydro-4H-pyrazolo[4,3-c]pyridine-5-carbonyl]-5-(oxan-4-yl)indol-1-yl]-2-methylcyclopropyl]-4H-1,2,4-oxadiazol-5-one]	2.8
COCCn1ncc2cc(-n3ccn(-c4c5c(nn4-c4cc(C)c(F)c(C)c4)CCN(C(=O)c4cc6cc(-c7ccnc(OC)c7C)ccc6n4[C@@]4(c6noc(=O)[nH]6)C[C@@H]4C)[C@H]5C)c3=O)ccc21 [Example 11, 3-[(1S,2S)-1-[2-[(4S)-2-(4-fluoro-3,5-dimethylphenyl)-3-[3-[1-(2-methoxyethyl)indazol-5-yl]-2-oxoimidazol-1-yl]-4-methyl-6,7-dihydro-4H-pyrazolo[4,3-c]pyridine-5-carbonyl]-5-(2-methoxy-3-methylpyridin-4-yl)indol-1-yl]-2-methylcyclopropyl]-4H-1,2,4-oxadiazol-5-one]	1.1
COc1nccc(-c2ccc3c(c2)cc(C(=O)N2CCc4nn(-c5cc(C)c(F)c(C)c5)c(-n5ccn(-c6ccc7c(cnn7C)c6)c5=O)c4[C@@H]2C)n3[C@@]2(c3noc(=O)[nH]3)C[C@@H]2C)c1C [Example 12, 3-[(1S,2S)-1-[2-[(4S)-2-(4-fluoro-3,5-dimethylphenyl)-4-methyl-3-[3-(1-methylindazol-5-yl)-2-oxoimidazol-1-yl]-6,7-dihydro-4H-pyrazolo[4,3-c]pyridine-5-carbonyl]-5-(2-methoxy-3-methylpyridin-4-yl)indol-1-yl]-2-methylcyclopropyl]-4H-1,2,4-oxadiazol-5-one]	2.7
COc1nccc(-c2ccc3c(c2)cc(C(=O)N2CCc4nn(-c5cc(C)c(F)c(C)c5)c(-n5ccn(-c6ccc7c(cnn7CC(C)(C)O)c6)c5=O)c4[C@@H]2C)n3[C@@]2(c3noc(=O)[nH]3)C[C@@H]2C)c1C [Example 13, 3-[(1S,2S)-1-[2-[(4S)-2-(4-fluoro-3,5-dimethylphenyl)-3-[3-[1-(2-hydroxy-2-methylpropyl)indazol-5-yl]-2-oxoimidazol-1-yl]-4-methyl-6,7-dihydro-4H-pyrazolo[4,3-c]pyridine-5-carbonyl]-5-(2-methoxy-3-methylpyridin-4-yl)indol-1-yl]-2-methylcyclopropyl]-4H-1,2,4-oxadiazol-5-one]	3.7

— patent publication US10858356B2, “Pyrazolopyridine derivative having GLP-1 receptor agonist effect” (Chugai Seiyaku Kabushiki Kaisha, priority 2016, dated 2020)
